This experiment concerns the target T1, Polyunsaturated fatty acid lipoxygenase ALOX12 (Homo sapiens, UniProt P18054).
T1 sequence (P18054 whole entry): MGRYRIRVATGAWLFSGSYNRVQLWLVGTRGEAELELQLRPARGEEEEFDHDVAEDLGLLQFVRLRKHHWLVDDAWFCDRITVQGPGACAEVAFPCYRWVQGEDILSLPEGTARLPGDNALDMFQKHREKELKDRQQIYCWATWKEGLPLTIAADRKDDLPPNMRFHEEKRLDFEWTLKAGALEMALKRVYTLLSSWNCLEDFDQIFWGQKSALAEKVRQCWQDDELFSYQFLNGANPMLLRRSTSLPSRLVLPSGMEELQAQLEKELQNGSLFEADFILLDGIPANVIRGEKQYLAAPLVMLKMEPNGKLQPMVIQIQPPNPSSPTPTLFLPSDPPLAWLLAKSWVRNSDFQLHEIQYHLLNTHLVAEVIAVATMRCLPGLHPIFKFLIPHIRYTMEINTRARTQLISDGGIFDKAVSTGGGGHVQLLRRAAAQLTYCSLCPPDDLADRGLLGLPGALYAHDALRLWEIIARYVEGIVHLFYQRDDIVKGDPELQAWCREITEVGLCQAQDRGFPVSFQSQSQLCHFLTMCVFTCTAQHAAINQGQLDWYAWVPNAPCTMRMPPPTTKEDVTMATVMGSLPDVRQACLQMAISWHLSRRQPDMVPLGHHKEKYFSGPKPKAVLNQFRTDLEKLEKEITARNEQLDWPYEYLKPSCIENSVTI
Description: Mixed type inhibition of human platelet 12-lipoxygenase assessed as equilibrium inhibitor constant of dissociation from enzyme by measuring 12-HpETE formation in presence of 0.01% Triton-X-100 by Dixon plot based steady-state inhibition kinetics assay.

Data on one compound can be found in BindingDB's records for doi:10.1016/j.bmc.2014.05.025 (University of California, 2014).

Turning to `CCCCCC(=O)C=CC=CC/C=C\C/C=C\CCCC(=O)O` [(5Z,8Z,11Z,13E)-15-oxoicosa-5,8,11,13-tetraenoic acid], the Ki is 0.087 µM.

One may read the Ki as the dissociation constant of the complex between target and ligand, obtained from inhibition or displacement.
